Here are results for 34 molecules from patent US10772893B2, “2-(morpholin-4-yl)-1,7-naphthyridines” (BAYER PHARMA AKTIENGESELLSCHAFT, priority 2014, dated 2020).

This test concerns HeLa cells. Briefly: Proliferation assay, crystal violet staining. Particulars: Homo sapiens, 96 h, read-out: Inhibition of HeLa cell proliferation, HeLa cells, 4 days incubation.
As for `C[C@@H]1COCCN1c1cc(-c2cc(C(F)(F)F)nn2C)c2ccnc(-c3ccn[nH]3)c2n1` [Example 98, 2-[(3R)-3-methylmorpholin-4-yl]-4-[1-methyl-3-(trifluoromethyl)-1H-pyrazol-5-yl]-8-(1H-pyrazol-5-yl)-1,7-naphthyridine], the IC50 amounted to 440 nM. With `Cc1ccsc1-c1cc(N2CCOC[C@H]2C)nc2c(-c3ccn[nH]3)nccc12` [Example 99, 2-[(3R)-3-methylmorpholin-4-yl]-4-(3-methyl-2-thienyl)-8-(1H-pyrazol-5-yl)-1,7-naphthyridine], the IC50 was 400 nM. Take `Cc1ccc(-c2cc(N3CCOC[C@H]3C)nc3c(-c4ccn[nH]4)nccc23)s1` [Example 100, 2-[(3R)-3-methylmorpholin-4-yl]-4-(5-methyl-2-thienyl)-8-(1H-pyrazol-5-yl)-1,7-naphthyridine]: the IC50 was 950 nM.

Turning to `Cc1cscc1-c1cc(N2CCOC[C@H]2C)nc2c(-c3ccn[nH]3)nccc12` [Example 101, 2-[(3R)-3-methylmorpholin-4-yl]-4-(4-methyl-3-thienyl)-8-(1H-pyrazol-5-yl)-1,7-naphthyridine], the IC50 came out at 341 nM. The value for `C[C@@H]1COCCN1c1cc(-c2sccc2Cl)c2ccnc(-c3ccn[nH]3)c2n1` [Example 102, 4-(3-chloro-2-thienyl)-2-[(3R)-3-methylmorpholin-4-yl]-8-(1H-pyrazol-5-yl)-1,7-naphthyridine] was 604 nM; that for `Cc1sccc1-c1cc(N2CCOC[C@H]2C)nc2c(-c3ccn[nH]3)nccc12` [Example 103, 2-[(3R)-3-methylmorpholin-4-yl]-4-(2-methyl-3-thienyl)-8-(1H-pyrazol-5-yl)-1,7-naphthyridine] was 374 nM; that for `C[C@@H]1COCCN1c1cc(-c2ccnc3[nH]ccc23)c2ccnc(-c3ccn[nH]3)c2n1` [Example 104, 2-[(3R)-3-methylmorpholin-4-yl]-8-(1H-pyrazol-5-yl)-4-(1H-pyrrolo[2,3-b]pyridin-4-yl)-1,7-naphthyridine] was 499 nM. The value for `Cc1noc(C)c1-c1cc(N2CCOC[C@H]2C)nc2c(-c3ccn[nH]3)nccc12` [Example 105, 4-(3,5-dimethyl-1,2-oxazol-4-yl)-2-[(3R)-3-methylmorpholin-4-yl]-8-(1H-pyrazol-5-yl)-1,7-naphthyridine] was 1000 nM. The same measure for `COc1nccc(-c2cc(N3CCOC[C@H]3C)nc3c(-c4ccn[nH]4)nccc23)c1Cl` [Example 106, 4-(3-chloro-2-methoxypyridin-4-yl)-2-[(3R)-3-methylmorpholin-4-yl]-8-(1H-pyrazol-5-yl)-1,7-naphthyridine]: 434 nM; for `C[C@@H]1COCCN1c1cc(C2CCOCC2)c2ccnc(-c3ccn[nH]3)c2n1` [Example 107, 2-[(3R)-3-methylmorpholin-4-yl]-8-(1H-pyrazol-5-yl)-4-(tetrahydro-2H-pyran-4-yl)-1,7-naphthyridine]: 306 nM; for `C[C@@H]1COCCN1c1cc(C2=CCSCC2)c2ccnc(-c3ccn[nH]3)c2n1` [Example 108, 4-(3,6-dihydro-2H-thiopyran-4-yl)-2-[(3R)-3-methylmorpholin-4-yl]-8-(1H-pyrazol-5-yl)-1,7-naphthyridine]: 456 nM.

Turning to `CC1CCN(c2cc(N3CCOC[C@H]3C)nc3c(-c4ccn[nH]4)nccc23)CC1` [Example 109, 2-[(3R)-3-methylmorpholin-4-yl]-4-(4-methylpiperidin-1-yl)-8-(1H-pyrazol-5-yl)-1,7-naphthyridine], the IC50 is 298 nM. The same measure for `C[C@@H]1COCCN1c1cc(-c2ccnn2C(C)(C)C)c2ccnc(-c3ccn[nH]3)c2n1` [Example 110, 4-(1-tert-butyl-1H-pyrazol-5-yl)-2-[(3R)-3-methylmorpholin-4-yl]-8-(1H-pyrazol-5-yl)-1,7-naphthyridine]: 206 nM; for `Cc1cc(-c2cc(N3CCOC[C@H]3C)nc3c(-c4ccn[nH]4)nccc23)on1` [Example 112, 2-[(3R)-3-methylmorpholin-4-yl]-4-(3-methyl-1,2-oxazol-5-yl)-8-(1H-pyrazol-5-yl)-1,7-naphthyridine]: 99.5 nM. The value for `CCn1nc(C)cc1-c1cc(N2CCOC[C@H]2C)nc2c(-c3ccn[nH]3)nccc12` [Example 113, 4-(1-ethyl-3-methyl-1H-pyrazol-5-yl)-2-[(3R)-3-methylmorpholin-4-yl]-8-(1H-pyrazol-5-yl)-1,7-naphthyridine] was 122 nM; that for `Cc1cnn(C)c1-c1cc(N2CCOC[C@H]2C)nc2c(-c3ccn[nH]3)nccc12` [Example 114, 4-(1,4-dimethyl-1H-pyrazol-5-yl)-2-[(3R)-3-methylmorpholin-4-yl]-8-(1H-pyrazol-5-yl)-1,7-naphthyridine] was 177 nM. As to `CSc1ccc(-c2cc(N3CCOC[C@H]3C)nc3c(-c4ccn[nH]4)nccc23)c(C)n1` [Example 115, 4-[2-methyl-6-(methylsulfanyl)pyridin-3-yl]-2-[(3R)-3-methylmorpholin-4-yl]-8-(1H-pyrazol-5-yl)-1,7-naphthyridine], the IC50 was determined as 199 nM. The value for `Cc1nc(S(C)(=N)=O)ccc1-c1cc(N2CCOC[C@H]2C)nc2c(-c3ccn[nH]3)nccc12` (stereo partly drawn) [Example 116, 4-[2-methyl-6-(S-methylsulfonimidoyl)pyridin-3-yl]-2-[(3R)-3-methylmorpholin-4-yl]-8-(1H-pyrazol-5-yl)-1,7-naphthyridine] was 284 nM; that for `CCCn1nccc1-c1cc(N2CCOC[C@H]2C)nc2c(-c3ccn[nH]3)nccc12` [Example 117, 2-[(3R)-3-methylmorpholin-4-yl]-4-(1-propyl-1H-pyrazol-5-yl)-8-(1H-pyrazol-5-yl)-1,7-naphthyridine] was 225 nM; that for `C[C@@H]1COCCN1c1cc(-c2cnc3n2CCC3)c2ccnc(-c3ccn[nH]3)c2n1` [Example 118, 4-(6,7-dihydro-5H-pyrrolo[1,2-a]imidazol-3-yl)-2-[(3R)-3-methylmorpholin-4-yl]-8-(1H-pyrazol-5-yl)-1,7-naphthyridine] was 171 nM. As for `CCn1nc(C(F)(F)F)cc1-c1cc(N2CCOC[C@H]2C)nc2c(-c3ccn[nH]3)nccc12` [Example 119, 4-[1-ethyl-3-(trifluoromethyl)-1H-pyrazol-5-yl]-2-[(3R)-3-methylmorpholin-4-yl]-8-(1H-pyrazol-5-yl)-1,7-naphthyridine], the IC50 turned out to be 425 nM. The same measure for `COC(=O)c1ccc(-c2cc(N3CCOC[C@H]3C)nc3c(-c4ccn[nH]4)nccc23)[nH]1` [Example 120, methyl 5-{2-[(3R)-3-methylmorpholin-4-yl]-8-(1H-pyrazol-5-yl)-1,7-naphthyridin-4-yl}-1H-pyrrole-2-carboxylate]: 354 nM; for `C[C@@H]1COCCN1c1cc(-c2ccns2)c2ccnc(-c3ccn[nH]3)c2n1` [Example 121, 2-[(3R)-3-methylmorpholin-4-yl]-8-(1H-pyrazol-5-yl)-4-(1,2-thiazol-5-yl)-1,7-naphthyridine]: 352 nM.

As to `C[C@@H]1COCCN1c1cc(-c2ccccc2N(C)C)c2ccnc(-c3ccn[nH]3)c2n1` [Example 122, N,N-dimethyl-2-{2-[(3R)-3-methylmorpholin-4-yl]-8-(1H-pyrazol-5-yl)-1,7-naphthyridin-4-yl}aniline], the IC50 amounted to 706 nM. Regarding `C[C@@H]1COCCN1c1cc(-c2ccc(F)cc2F)c2ccnc(-c3ccn[nH]3)c2n1` [Example 123, 4-(2,4-difluorophenyl)-2-[(3R)-3-methylmorpholin-4-yl]-8-(1H-pyrazol-5-yl)-1,7-naphthyridine], the IC50 worked out at 431 nM. The same measure for `CC(C)n1nccc1-c1cc(N2CCOC[C@H]2C)nc2c(-c3ccn[nH]3)nccc12` [Example 124, 4-(1-isopropyl-1H-pyrazol-5-yl)-2-[(3R)-3-methylmorpholin-4-yl]-8-(1H-pyrazol-5-yl)-1,7-naphthyridine]: 156 nM. The value for `CC(C)COP(C)(=O)c1cc(N2CCOC[C@H]2C)nc2c(-c3ccn[nH]3)nccc12` (stereo partly drawn) [Example 127, isobutyl methyl{2-[(3R)-3-methylmorpholin-4-yl]-8-(1H-pyrazol-5-yl)-1,7-naphthyridin-4-yl}phosphinate] was 578 nM. The value for `C[C@@H]1COCCN1c1cc(C(C)(C)O)c2ccnc(-c3ccn[nH]3)c2n1` [Example 128, 2-{2-[(3R)-3-methylmorpholin-4-yl]-8-(1H-pyrazol-5-yl)-1,7-naphthyridin-4-yl}propan-2-ol] was 770 nM. Take `CCC(O)(CC)c1cc(N2CCOC[C@H]2C)nc2c(-c3ccn[nH]3)nccc12` [Example 129, 3-{2-[(3R)-3-methylmorpholin-4-yl]-8-(1H-pyrazol-5-yl)-1,7-naphthyridin-4-yl}pentan-3-ol]: the IC50 turned out to be 686 nM. The value for `C[C@@H]1COCCN1c1cc(-c2cncc(Cl)c2)c2ccnc(-c3ccn[nH]3)c2n1` [Example 130, 4-(5-chloropyridin-3-yl)-2-[(3R)-3-methylmorpholin-4-yl]-8-(1H-pyrazol-5-yl)-1,7-naphthyridine] was 374 nM; that for `C[C@@H]1COCCN1c1cc(-c2ccc(F)cc2N)c2ccnc(-c3ccn[nH]3)c2n1` [Example 131, 5-fluoro-2-{2-[(3R)-3-methylmorpholin-4-yl]-8-(1H-pyrazol-5-yl)-1,7-naphthyridin-4-yl}aniline] was 349 nM. The same measure for `C[C@@H]1COCCN1c1cc(-c2cccc(S(C)(=O)=O)c2F)c2ccnc(-c3ccn[nH]3)c2n1` [Example 132, 4-[2-fluoro-3-(methylsulfonyl)phenyl]-2-[(3R)-3-methylmorpholin-4-yl]-8-(1H-pyrazol-5-yl)-1,7-naphthyridine]: 507 nM; for `C[C@@H]1COCCN1c1cc(-c2ccnn2C2COC2)c2ccnc(-c3ccn[nH]3)c2n1` [Example 133, 2-[(3R)-3-methylmorpholin-4-yl]-4-[1-(oxetan-3-yl)-1H-pyrazol-5-yl]-8-(1H-pyrazol-5-yl)-1,7-naphthyridine]: 1070 nM. The value for `C[C@@H]1COCCN1c1cc(-c2ccc(N3CCCC3)cc2F)c2ccnc(-c3ccn[nH]3)c2n1` [Example 134, 4-[2-fluoro-4-(pyrrolidin-1-yl)phenyl]-2-[(3R)-3-methylmorpholin-4-yl]-8-(1H-pyrazol-5-yl)-1,7-naphthyridine] was 1530 nM.
